From patent US11555014B2, “High penetration prodrug compositions of prostaglandins and related compounds” (Techfields Pharma Co., Ltd., priority 2006, dated 2023)

Key:
[1] = In vitro penetration rate across isolated human skin in modified Franz cells; conditions: for In vitro penetration rate (apparent flux), parent compounds: 10% suspension in pH 7.4 phosphate buffer (0.2 M), n=5, lowest detectable flux 1 μg/cm^2/h; for In vitro penetration rate (apparent flux), prodrug compounds: 10% solution in pH 7.4 phosphate buffer (0.2 M), n=5
Method: The penetration rates of HPPs and their parent drugs through human skin were measured in vitro by modified Franz cells. The Franz cells have two chambers, the top sample chamber and the bottom receiving chamber. The human skin tissue (360-400 μm thick) that separates the top and the receiving chambers was isolated from the anterior or posterior thigh areas.
The compound tested (2 mL, 20% in 0.2 M phosphate buffer, pH. 7.4) were added to the sample chamber of a Franz cell. The receiving chamber contains 10 ml of 2% bovine serum albumin in saline which was stirred at 600 rpm. The cumulative amounts of the tested compounds penetrating the skin versus time were determined by high-performance liquid chromatography (HPLC) method.

[2] = test system: cat eye; assay: Irritative effect or ocular discomfort in the cat eye after topical application; format: in vivo; conditions: first 2 hours, scale 0 (no discomfort) to 4 (maximal irritation, complete lid closure)
Method: Irritative effect or ocular discomfort in the cat eye of naturally occurring and modified prostaglandins and their novel prodrugs were evaluated during the first hours after the topical application of the respective test drug. The ocular discomfort was graded on a scale from 0 to 4, 0 indicating complete absence of any signs of discomfort, and 4 indicating maximal irritation as obvious from complete lid closure.

[3] = test system: rabbit eye; assay: Conjunctival hyperemia in the rabbit eye after topical application; format: in vivo; conditions: first 2 hours, scale 0 (no hyperemia) to 4 (marked hyperemia with conjunctive chemosis)
Method: Conjunctival hyperemia in the rabbit eye of naturally occurring and modified prostaglandins and their novel prodrugs was evaluated during the first 2 hours after topical application of the respective test drug. The conjunctival hyperemia was graded on a scale from 0 to 4, 0 indicating complete absence of any hyperemia, and 4 indicating marked hyperemia with conjunctive chemosis.

[4] = test system: cats with ocular hypertension; assay: Intraocular pressure (IOP) reduction in cats with ocular hypertension produced by laser trabeculoplasty; format: in vivo, cat
Method: The ability of certain compounds of the present invention to reduce intraocular pressure (IOP) was evaluated in cats with ocular hypertension produced by previously done laser trabeculoplastry. IOP was determined with a pneumatonometer after light corneal anesthesia with dilute proparacaine. Baseline IOP was determined prior to treatment with the test compound aqueous solution. 6 divided doses were administered over a period of 3 days (once every 12 hours). IOP was determined 24 hours after the initial dose and then once every 12 hours. The therapeutically efficient amount is typically between 0.001 and 0.01% in pH 7.2 phosphate buffer (0.1 M). The treatment was carried out in that one drop (about 30 micro liter) of the composition. The results of N,N-diethylaminoethyl 11,15-dihydroxy-9-oxoprost-13-en-1-oate.AcOH (A), N,N-diethylaminoethyl 11,15-dihydroxyl-9-oxoprosta-5,13-dien-1-oate.AcOH (B), N,N-diethylaminoethyl 9,11,15-trihydroxyprosta-5,13-dien-1-oate.AcOH(C), N,N-diethylaminoethyl 9,11-dihydroxy-15-keto-20-ethylprost-5,13-dien-1-oate.AcOH (9,11-dihydroxy-15-keto-20-ethylprostaglandin F2α N,N-diethylaminoethyl ester) (D), N,N-diethylaminoethyl (Z)-7-{(1R,2R,3R,5S)-3,5-dihydroxy-2-[(1E,3R)-3-hydroxy-4-[(α,α,α-trifluoro-m-tolyl)oxy]-1-butenyl]cyclopentyl}-5-heptenoate.AcOH (E), N,N-diethylaminoethyl (Z)-7{(1R,2R,3R,5S)-3,5-dihydroxy-2-[(3R)-3-hydroxy-5-phenylpentyl]cyclopentyl}-5-heptenoate.AcOH (F), and N,N-diethylaminoethyl (Z)-7-{(1R,2R,3R,5S)-3,5-Dihydroxy-2-[(1E,3S)-3-hydroxy-5-phenyl-1-pentenyl]cyclopentyl}-heptenoate.AcOH (G) are shown in Table 2.

[5] = dose 0.01%, one drop topical every 12 hours, 6 doses

SMILES	In vitro penetration rate (apparent flux), parent compounds [1] [mg/cm^2/h]	In vitro penetration rate (apparent flux), prodrug compounds [1] [mg/cm^2/h]	further results
CCCCC(C)(O)C/C=C/[C@H]1[C@H](O)CC(=O)[C@@H]1CCCCCCC(=O)OC (mixture of isomers) [Misoprostol, reference compound]	0.001		
O=C(O)CCC/C=C\C[C@@H]1[C@@H](/C=C/[C@@H](O)COc2cccc(C(F)(F)F)c2)[C@H](O)C[C@@H]1O (racemic) [Fluprostenol, reference compound]	0.001		
CCNC(=O)CCC/C=C\C[C@@H]1[C@@H](/C=C/[C@@H](O)CCc2ccccc2)[C@H](O)C[C@@H]1O [Bimatoprost, reference compound]	0.001		Degree of irritative effect ([2]; dose 0.001% topical): 2.5; Degree of irritative effect (conjunctival hyperemia) ([3]; dose 0.001% topical): 2.5
CCCCC[C@](C)(O)/C=C/[C@@H]1[C@@H](C/C=C\CCCC(=O)O)[C@@H](O)C[C@H]1O [Carboprost, reference compound]	0.001		
O=C(O)CCC/C=C\CC1C(O)CC(O)C1/C=C/C(O)COc1cccc(Cl)c1 (centres unmarked) [Cloprostenol, reference compound]	0.001		
CCCCC(C)(C)[C@H](O)/C=C/[C@H]1[C@H](O)CC(=O)[C@@H]1CCCC/C=C/C(=O)OC [Gemeprost, reference compound]	0.001		
CC(C)OC(=O)CCC/C=C\C[C@@H]1[C@@H](CC[C@@H](O)CCc2ccccc2)[C@H](O)C[C@@H]1O [Latanoprost, 13,14-dihydro-17-phenyl-18,19,20-trinor PGF2α isopropyl ester, reference compound]	0.001		Degree of irritative effect ([2]; dose 0.001% topical): 2.5
CC(=O)O.CCCCCC(O)C=C[C@H]1C(O)CC2OC(=CCCCC(=O)OCCN(CC)CC)C[C@@H]21 (some centres unmarked) [N,N-diethylaminoethyl 6,9-epoxy-11,15-dihydroxyprosta-5,13-dien-1-oate•AcOH]		1.11	
CC(=O)O.CCN(CC)CCOC(=O)CCC=C=CCC1C(O)CC(O)C1C=CC(O)COc1ccccc1 (centres unmarked) [N,N-diethylaminoethyl 7-[3,5-dihydroxy-2-(3-hydroxy-4-phenoxy-1-butenyl)cyclopentyl]-4,5-heptadien-1-oate•AcOH]		0.81	
CC(=O)O.CCN(CC)CCOC(=O)CCCC=CCC1C(=O)CC(O)C1C=CC(O)COc1ccccc1 (centres unmarked) [N,N-diethylaminoethyl 7-[3-hydroxy-2-(3-hydroxy-4-phenoxy-1-butenyl)-5-oxocyclopentyl]-5-heptenoate•AcOH]		1.01	
CC(=O)O.CCN(CC)CCOC(=O)CCCC=CCC1C(O)CC(O)C1C=CC(O)COc1cccc(Cl)c1 (centres unmarked) [N,N-diethylaminoethyl 7-{2-[4-(3-chlorophenoxy)-3-hydroxy-1-butenyl]-3,5-dihydroxycyclopentyl}-5-heptenoate•AcOH]		0.92	
CC(=O)O.CCN(CC)CCOC(=O)CCCC=CCC1C(O)CC(O)C1C=CC(O)COc1cccc(C(F)(F)F)c1 (centres unmarked) [N,N-diethylaminoethyl 7-{3,5-dihydroxy-2-[3-hydroxy-4-(3-trifluoromethylphenoxy)-1-butenyl]cyclopentyl}-5-heptenoate•AcOH]		0.86	
CCCCC[C@H](O)/C=C/[C@H]1[C@H](O)CC(=O)[C@@H]1CCCCCCC(=O)O [PGE1, reference compound]			Degree of irritative effect ([2]; dose 0.001% topical): 4; Degree of irritative effect (conjunctival hyperemia) ([3]; dose 0.001% topical): 4
CCCCC[C@H](O)/C=C/[C@@H]1[C@@H](C/C=C\CCCC(=O)O)[C@@H](O)C[C@H]1O [PGF2α, reference compound]			Degree of irritative effect ([2]; dose 0.001% topical): 3.5; Degree of irritative effect (conjunctival hyperemia) ([3]; dose 0.001% topical): 4

Second part, led by results:

In vitro penetration rate (apparent flux), parent compounds [1] [mg/cm^2/h]	In vitro penetration rate (apparent flux), prodrug compounds [1] [mg/cm^2/h]	SMILES	further results
	0.90	CC(=O)O.CCCCCC(C)(O)C=C[C@H]1C(O)CC(O)[C@@H]1CC=C=CCCC(=O)OCCN(CC)CC (some centres unmarked) [N,N-diethylaminoethyl 9,11,15-trihydroxy-15-methylprosta-4,5,13-trien-1-oate•AcOH]	
	0.85	CC(=O)O.CCCCCC(O)C=C[C@H]1C(O)CC(O)[C@@H]1CCCCCCC(=O)OCCN(CC)CC (some centres unmarked) [N,N-diethylaminoethyl 9,11,15-trihydroxyprost-13-en-1-oate•AcOH]	
	1.05	CC(=O)O.CCCCCCCC(=O)C=C[C@H]1C(O)CC(O)[C@@H]1CC=CCCCC(=O)OCCN(CC)CC (some centres unmarked) [N,N-diethylaminoethyl 9,11-dihydroxy-15-keto-20-ethylprost-5,13-dien-1-oate.AcOH]	Degree of irritative effect ([2]; dose 0.01% topical): 1; Degree of irritative effect (conjunctival hyperemia) ([3]; dose 0.01% topical): 1; Intraocular pressure, 24 hours after administration [4, 5]: 16.5 ± 0.6; Intraocular pressure, 36 hours after administration [4, 5]: 16.7 ± 0.4; Intraocular pressure, 48 hours after administration [4, 5]: 16.8 ± 0.6; Intraocular pressure, 60 hours after administration [4, 5]: 17.1 ± 0.5; Intraocular pressure, 72 hours after administration [4, 5]: 16.8 ± 0.5; Intraocular pressure, baseline ([4]; prior to treatment, group dosed 0.01%): 22.0 ± 0.6
	1.10	CC(=O)O.CCCCCC(O)C=C[C@H]1C(O)CC(=O)[C@@H]1CC=CCCCC(=O)OCCN(CC)CC (some centres unmarked) [N,N-diethylaminoethyl 11,15-dihydroxy-9-oxoprosta-5,13-dien-1-oate.AcOH]	
	0.88	CC(=O)O.CCCCC(C)(C)C(O)C=C[C@H]1C(O)CC(=O)[C@@H]1CCCCC=CC(=O)OCCN(CC)CC (some centres unmarked) [N,N-diethylaminoethyl 11,15-dihydroxy-16,16-dimethyl-9-oxoprosta-2,13-dien-1-oate•AcOH]	
	1.09	CC(=O)O.CCCCC(C)(O)CC=C[C@H]1C(O)CC(=O)[C@@H]1CCCCCCC(=O)OCCN(CC)CC (some centres unmarked) [N,N-diethylaminoethyl 11,16-dihydroxy-9-oxo-16-methylprost-13-en-1-oate•AcOH]	
0.001		CCCCC[C@H](O)/C=C/[C@@H]1[C@@H](CCCCCCC(=O)O)[C@@H](O)C[C@H]1O [PGE1α, reference compound]	
0.001		CCCCC[C@H](O)/C=C/[C@H]1[C@H](O)CC(=O)[C@@H]1C/C=C\CCCC(=O)O [PGE2, reference compound]	Degree of irritative effect ([2]; dose 0.001% topical): 3.5; Degree of irritative effect (conjunctival hyperemia) ([3]; dose 0.001% topical): 4
0.001		CCCCC[C@H](O)/C=C/[C@@H]1[C@H]2C/C(=C/CCCC(=O)O)O[C@H]2C[C@H]1O [PGI2, prostacyclin, reference compound]	
0.001		CCCCCC(C)(O)/C=C/[C@@H]1[C@@H](CC=C=CCCC(=O)OC)[C@@H](O)C[C@H]1O (some centres unmarked) [Prostalene, reference compound]	
0.001		CS(=O)(=O)NC(=O)CCC/C=C\C[C@H]1C(=O)C[C@@H](O)[C@@H]1/C=C/[C@@H](O)COc1ccccc1 [Sulprostone, reference compound]	
0.001		CCCCCCCC(=O)CC[C@@H]1[C@@H](C/C=C\CCCC(=O)O)[C@@H](O)C[C@H]1O [Unoprostone, 13,14-dihydro-15-keto-20-ethyl Prostaglandin F2α, reference compound]	Degree of irritative effect ([2]; dose 0.01% topical): 2.5; Degree of irritative effect (conjunctival hyperemia) ([3]; dose 0.01% topical): 2.5
0.001		COC(=O)CCC=C=CCC1C(O)CC(O)C1/C=C/C(O)COc1ccccc1 (centres unmarked) [fenprostalene, reference compound]	
